Experimental data: the supplement of paper PMC10307832

Assays:
Experiment in all cases: relative viability (nuclei count vs DMSO), 5 days (fraction); higher = more cells survive
IA-LM = system: IA-LM
In short: (§1)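 Dosing by pin tool came one day after lung cancer cell lines were seeded in 1536-well plates, using either one drug or a fixed anchor-drug dose plus five library-drug doses (not always all listed) in √10 steps. After 5 days, nuclei were counted on 4× images. Relative viability is treated-well nuclei count divided by vehicle-well nuclei count, and values are medians of duplicate plates.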

Calu-6 = system: Calu-6
In short: as §1

NCI-H1299 = system: NCI-H1299
In short: as §1

EBC-1 = system: EBC-1
In short: as §1

NCI-H1437 = system: NCI-H1437
In short: as §1

NCI-H1703 = system: NCI-H1703
In short: as §1

A549 = system: A549
In short: as §1

Compound | relative viability (IA-LM; first compound 0.04 µM) | relative viability (IA-LM; first compound 0.1265 µM) | relative viability (IA-LM; first compound 0.4 µM) | relative viability (IA-LM; first compound 1.265 µM) | relative viability (IA-LM; first compound 4 µM) | relative viability (Calu-6; first compound 0.04 µM) | relative viability (Calu-6; first compound 0.1265 µM) | relative viability (Calu-6; first compound 0.4 µM) | relative viability (Calu-6; first compound 1.265 µM) | relative viability (Calu-6; first compound 4 µM) | relative viability (NCI-H1299; first compound 0.04 µM) | relative viability (NCI-H1299; first compound 0.1265 µM) | relative viability (NCI-H1299; first compound 0.4 µM) | relative viability (NCI-H1299; first compound 1.265 µM) | relative viability (NCI-H1299; first compound 4 µM) | relative viability (EBC-1; first compound 0.04 µM) | relative viability (EBC-1; first compound 0.1265 µM) | relative viability (EBC-1; first compound 0.4 µM) | relative viability (EBC-1; first compound 1.265 µM) | relative viability (EBC-1; first compound 4 µM) | relative viability (NCI-H1437; first compound 0.04 µM) | relative viability (NCI-H1437; first compound 0.1265 µM) | relative viability (NCI-H1437; first compound 0.4 µM) | relative viability (NCI-H1437; first compound 1.265 µM) | relative viability (NCI-H1437; first compound 4 µM) | relative viability (NCI-H1703; first compound 0.04 µM) | relative viability (NCI-H1703; first compound 0.1265 µM) | relative viability (NCI-H1703; first compound 0.4 µM) | relative viability (NCI-H1703; first compound 1.265 µM) | relative viability (NCI-H1703; first compound 4 µM) | relative viability (A549; first compound 0.04 µM) | relative viability (A549; first compound 0.1265 µM) | relative viability (A549; first compound 0.4 µM) | relative viability (A549; first compound 1.265 µM) | relative viability (A549; first compound 4 µM)
COc1cc(N2CCC(C(N)=O)CC2)ccc1Nc1nc(N)c(Cl)c(Nc2ccccc2S(=O)(=O)C(C)C)n1 [HG-5-88-01] + CS(=O)(=O)N1CCN(Cc2cc3nc(-c4cccc5[nH]ncc45)nc(N4CCOCC4)c3s2)CC1 [Pictilisib] (partner 1 µM) | 0.398 | 0.252 | 0.244 | 0.172 | 0.145 | 0.942 | 0.869 | 0.848 | 0.824 | 0.698 | 0.745 | 0.724 | 0.725 | 0.643 | 0.682 | 0.394 | 0.362 | 0.339 | 0.324 | 0.217 | 0.519 | 0.431 | 0.436 | 0.416 | 0.264 | 0.217 | 0.223 | 0.228 | 0.222 | 0.226 | 0.482 | 0.495 | 0.389 | 0.323 | 0.237
COc1cc(N2CCC(C(N)=O)CC2)ccc1Nc1nc(N)c(Cl)c(Nc2ccccc2S(=O)(=O)C(C)C)n1 [HG-5-88-01] + C[C@@H](Oc1cc(-c2cnn(C3CCNCC3)c2)cnc1N)c1c(Cl)ccc(F)c1Cl [Crizotinib] (partner 1 µM) | 0.907 | 0.953 | 0.773 | 0.632 | 0.758 | 0.767 | 0.81 | 0.833 | 0.616 | 0.304 | 0.992 | 0.981 | 0.982 | 0.976 | 0.881 | 0.183 | 0.187 | 0.207 | 0.171 | 0.142 | 0.896 | 0.927 | 0.899 | 0.822 | 1.03 | 0.581 | 0.523 | 0.54 | 0.327 | 0.175 | 0.735 | 0.763 | 0.699 | 0.387 | 0.0941
COc1cc(N2CCC(C(N)=O)CC2)ccc1Nc1nc(N)c(Cl)c(Nc2ccccc2S(=O)(=O)C(C)C)n1 [HG-5-88-01] + C[C@]1(O)C[C@@H](c2nc(-c3ccc4ccc(-c5ccccc5)nc4c3)c3c(N)nccn32)C1 [Linsitinib] (partner 1 µM) | 0.602 | 0.383 | 0.488 | 0.314 | 0.542 | 0.938 | 0.837 | 0.95 | 0.929 | 1.02 | 0.999 | 0.97 | 0.945 | 0.97 | 1.1 | 0.892 | 0.373 | 0.924 | 0.847 | 0.927 | 1.04 | 1.04 | 0.926 | 0.996 | 1.18 | 0.689 | 0.648 |  | 0.486 | 1.62 | 0.59 | 0.771 | 0.634 | 0.432 | 0.796
